Laboratory results as given in US20030022889A1, “Method for providing neuro-protective effects” (priority 1997, published 2003).

How the values were obtained:
[1] = test system: formation of lipid peroxides; assay: Lipid Peroxidation Test; conditions: test protocol of Aruoma, et al. (1990)
5-HT1C receptor = target: T1, 5-HT1C receptor (Homo sapiens, UniProt P28335); assay: pharmacological studies, 5-HT1C receptor activity
T1 sequence (P28335 33-458): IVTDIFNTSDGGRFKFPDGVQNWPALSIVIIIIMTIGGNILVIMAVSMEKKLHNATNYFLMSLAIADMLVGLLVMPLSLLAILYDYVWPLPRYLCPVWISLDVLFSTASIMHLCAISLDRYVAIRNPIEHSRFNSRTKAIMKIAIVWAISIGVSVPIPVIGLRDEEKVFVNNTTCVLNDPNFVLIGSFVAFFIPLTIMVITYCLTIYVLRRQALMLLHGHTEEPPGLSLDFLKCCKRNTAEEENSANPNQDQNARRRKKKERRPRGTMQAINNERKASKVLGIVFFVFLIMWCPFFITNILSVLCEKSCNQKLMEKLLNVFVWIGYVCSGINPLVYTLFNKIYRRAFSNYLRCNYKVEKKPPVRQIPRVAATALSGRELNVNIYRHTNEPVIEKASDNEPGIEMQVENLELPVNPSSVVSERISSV

[2] = test system: muscarinic cholinergic receptor; assay: pharmacological studies, muscarinic cholinergic receptor activity
[3] = test system: ischemia-induced neuronal cell damage (CA1 pyramidal cell layer of the hippocampus); assay: Cerebral Ischemia Model in Rats; assay type: in vivo, Male Wistar rats; conditions: "such experiments"; the sentence does not name a specific test
From the text: Cerebral ischemia is produced in rats by occluding the four arteries that supply blood to the brain according to the following procedure. Male Wistar rats are anesthetized with Metofane and placed into a stereotaxic instrument. A longitudinal incision is made on the dorsal surface of the neck. The neck muscles are reflected to expose the dorsal surface of the spinal column. The two vertebral arteries are exposed where they pass through the first cervical vertebra. Both arteries are permanently occluded by the application of electrocautery. After coagulation of the vertebral arteries, the rat is removed from the stereotaxic instrument and the surgical wound is sutured. Two longitudinal incisions are then made on the ventral surface of the neck. The two common carotid arteries are exposed and dissected free from surrounding nerves and connective tissue. An atraumatic clasp, fabricated mainly from silicone rubber tubing, is placed around each carotid artery in a manner such that the vessel is not traumatized or occluded. An indwelling jugular cannula is implanted into each rat for drug delivery. The surgical wounds are then closed. […]
Damage in 4 sections of the dorsal hippocampus from each brain is assessed in order to obtain an accurate estimate of damage. An average damage score is calculated for each treatment group. […] The level of significance is determined using the Mann Whitney-U-test.

Q: What does the source list for Cc1cc2c(s1)Nc1ccccc1N=C2N1CCN(C)CC1 [olanzapine, 2-methyl-4-(4-methyl-1-piperazinyl)-10H-thieno[2,3-b] [1,5] benzodiazepine]?
A: inhibition of the formation of lipid peroxides [1]: inhibit the formation of lipid peroxides; activity at the 5-HT1C receptor (5-HT1C receptor): active; muscarinic cholinergic receptor activity [2]: has muscarinic cholinergic receptor activity; neuro-protective effect [3]: significant neuro-protective effect
